Assay results published in patent publication US20060194837A1, “Tetrahydroisoquinoline compounds” (priority 2004, published 2006).

Columns and labels:
[1] = biological target: T1, human SERT (Homo sapiens, UniProt P31645); experiment: Human SERT binding (3H-citalopram displacement); conditions: HEK293 membranes expressing human SERT, rt 1 h
T1 construct: expressed in transfected cells; host or cells: HEK293 membranes
Method: Homogenized HEK293 (Human Embryonic Kidney) membranes expressing the human SERT were incubated with ^3H-citalopram (SERT) at rt for 1 h in 50 mM Tris, 120 mM NaCl, 5 mM KCl (pH 7.4). […] The membranes were washed and the radioactivity was counted as above.

[2] = biological target: T2, human H3 receptor (Homo sapiens, UniProt Q9Y5N1); experiment: Cyclic AMP accumulation (β-galactosidase reporter, Schild analysis); assay type: cell-based; conditions: SK-N-MC cells expressing human H3 receptor and CRE-β-galactosidase reporter; histamine agonist, forskolin 5 μM; Schild regression of pEC50 values; read-out: pA2 (converted)
T2 construct: expressed in transfected cells
T2 sequence (Q9Y5N1 whole entry): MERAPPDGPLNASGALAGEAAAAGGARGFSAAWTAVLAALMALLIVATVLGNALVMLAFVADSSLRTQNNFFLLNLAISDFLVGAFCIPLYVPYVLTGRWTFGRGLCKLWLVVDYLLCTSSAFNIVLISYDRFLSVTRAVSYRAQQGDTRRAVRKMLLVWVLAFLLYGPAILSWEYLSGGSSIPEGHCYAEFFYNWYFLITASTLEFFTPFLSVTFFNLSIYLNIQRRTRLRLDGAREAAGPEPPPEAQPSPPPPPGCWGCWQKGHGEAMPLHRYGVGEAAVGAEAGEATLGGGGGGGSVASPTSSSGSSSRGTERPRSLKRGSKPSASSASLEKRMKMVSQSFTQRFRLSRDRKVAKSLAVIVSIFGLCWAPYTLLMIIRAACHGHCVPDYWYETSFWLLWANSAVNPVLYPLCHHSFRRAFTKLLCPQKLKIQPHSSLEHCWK
Method: Sublines of SK-N-MC cells were created that expressed a reporter construct and the human H3 receptor. The reporter gene (β-galactosidase) is under the control of multiple cyclic AMP responsive elements. In 96-well plates, histamine was added directly to the cell media followed 5 min later by an addition of forskolin (5 μM final concentration). When appropriate, antagonists were added 10 min prior to agonist addition. After a 6-h incubation at 37° C., the media was aspirated and the cells washed with 200 μL of phosphate-buffered saline followed by a second aspiration. Cells were lysed with 25 μL 0.1× assay buffer (10 mM Na-phosphate, pH 8, 0.2 mM MgSO4, 0.01 mM MnCl2) and incubated at rt for 10 min. […] Color was developed using 25 μL of 1 mg/mL substrate solution (chlorophenolred β-D galactopyranoside; Roche Molecular Biochemicals, Indianapolis, In.).

[3] = biological target: T3, Rat SERT (Rattus norvegicus, UniProt P31652); experiment: Rat brain SERT binding ([3H]-citalopram displacement); conditions: rat brain membranes without cerebellum, 0.6 nM [3H]-citalopram, 60 min at 25° C.; read-out: Rat SERT Ki
T3 construct: A rat brain without cerebellum (Zivic Laboratories, Inc.—Pittsburgh, Pa.) was homogenized; tissue Zivic Laboratories, Inc; host or cells: rat brain without cerebellum, membranes
T3 sequence (P31652 whole entry): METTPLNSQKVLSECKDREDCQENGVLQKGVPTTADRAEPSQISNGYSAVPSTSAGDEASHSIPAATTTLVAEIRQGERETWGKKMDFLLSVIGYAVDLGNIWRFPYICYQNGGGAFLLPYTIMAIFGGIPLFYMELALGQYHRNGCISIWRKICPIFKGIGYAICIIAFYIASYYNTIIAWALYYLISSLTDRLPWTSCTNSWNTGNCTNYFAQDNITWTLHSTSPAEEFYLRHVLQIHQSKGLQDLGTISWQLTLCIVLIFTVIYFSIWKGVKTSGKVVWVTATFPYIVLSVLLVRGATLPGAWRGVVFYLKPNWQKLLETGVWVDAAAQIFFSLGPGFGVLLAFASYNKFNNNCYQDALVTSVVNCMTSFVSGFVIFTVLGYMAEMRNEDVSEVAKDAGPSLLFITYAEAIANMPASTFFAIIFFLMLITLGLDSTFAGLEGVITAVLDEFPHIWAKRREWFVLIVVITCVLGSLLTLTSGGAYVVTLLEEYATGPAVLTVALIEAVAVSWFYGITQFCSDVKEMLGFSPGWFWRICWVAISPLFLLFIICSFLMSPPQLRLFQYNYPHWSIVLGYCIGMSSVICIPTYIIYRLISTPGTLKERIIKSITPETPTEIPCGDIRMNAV
Method: The supernatant was removed and re-centrifuged at 15,000 rpm for 30 min. […] Membranes were incubated with 0.6 nM [^3H]-Citalopram plus/minus test compounds for 60 min at 25° C. and harvested by rapid filtration over GF/C glass fiber filters (pretreated with 0.3% polyethylenimine) followed by four washes with ice-cold buffer.

[4] = biological target: T2, human H3 receptor; experiment: H3 receptor binding (N-[3H]-α-methylhistamine displacement); conditions: membranes of SK-N-MC cells expressing cloned human H3 receptor, 0.8 nM N-[3H]-α-methylhistamine, 60 min at 25° C.

T1 sequence (P31645 whole entry): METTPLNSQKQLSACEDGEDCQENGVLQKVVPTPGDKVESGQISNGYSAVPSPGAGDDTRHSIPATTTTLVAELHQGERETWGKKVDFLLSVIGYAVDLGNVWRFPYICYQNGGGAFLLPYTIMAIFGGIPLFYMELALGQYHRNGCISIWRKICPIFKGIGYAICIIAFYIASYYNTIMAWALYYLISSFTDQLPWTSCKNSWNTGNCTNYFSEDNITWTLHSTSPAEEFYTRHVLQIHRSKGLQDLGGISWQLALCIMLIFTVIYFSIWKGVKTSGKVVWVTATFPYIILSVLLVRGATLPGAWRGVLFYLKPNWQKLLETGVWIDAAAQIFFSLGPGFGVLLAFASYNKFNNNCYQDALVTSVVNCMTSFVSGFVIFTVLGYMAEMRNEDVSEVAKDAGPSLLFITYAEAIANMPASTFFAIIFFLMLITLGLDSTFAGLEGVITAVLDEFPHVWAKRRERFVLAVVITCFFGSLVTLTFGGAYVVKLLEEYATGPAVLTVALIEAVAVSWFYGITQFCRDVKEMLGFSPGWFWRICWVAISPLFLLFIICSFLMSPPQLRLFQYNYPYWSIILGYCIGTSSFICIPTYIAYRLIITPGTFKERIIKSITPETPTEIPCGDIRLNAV

Ki [1]: 98 nM
Kb [2]: 3.16 nM
Ki [3]: 90 nM
Ki [4]: 6 nM
SMILES: CN1Cc2cc(C#CCCN3CCCCC3)ccc2C(c2ccc(F)cc2)C1 (stereo not shown) [Example 279, 4-(4-Fluoro-phenyl)-2-methyl-7-(4-piperidin-1-yl-but-1-ynyl)-1,2,3,4-tetrahydro-isoquinoline]
